Source: patent publication US8163740B2, “6-substituted benzoxazines” (Hoffmann-La Roche Inc., priority 2008, dated 2012)

Target: recombinant human 5-HT5A receptor (Homo sapiens, UniProt P47898)
Assay: [3H]LSD radioligand binding assay
Conditions: [3H]LSD (approximately 1 nM); membranes from HEK-EBNA cells transiently expressing 5-HT5A; Ki by Cheng-Prussoff equation; read-out: Ki
Outline: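 Membranes from HEK-EBNA cells transiently expressing the receptor, with ~1 nM [3H]LSD in 50 mM Tris, 1 mM EGTA, 10 mM MgCl2, 10 μM pargyline, pH 7.4, SPA bead format. Incubated 120 min RT; nonspecific binding defined with 2 μM methiothepin. 10 concentrations in duplicate; IC50 converted to Ki via Cheng-Prusoff.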

recombinant human 5-HT5A receptor, sequence (P47898 whole entry): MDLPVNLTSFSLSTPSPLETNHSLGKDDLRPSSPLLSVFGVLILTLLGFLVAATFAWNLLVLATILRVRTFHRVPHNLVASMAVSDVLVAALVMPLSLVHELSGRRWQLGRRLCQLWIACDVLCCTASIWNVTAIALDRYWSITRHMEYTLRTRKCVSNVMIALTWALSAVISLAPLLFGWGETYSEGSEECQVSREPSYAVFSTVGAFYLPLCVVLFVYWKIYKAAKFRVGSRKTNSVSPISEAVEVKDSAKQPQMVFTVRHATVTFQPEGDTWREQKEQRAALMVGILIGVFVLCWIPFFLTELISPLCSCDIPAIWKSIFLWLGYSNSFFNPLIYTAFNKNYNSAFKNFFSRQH

| Structure (SMILES) | Ki [µM] |
| --- | --- |
| CC(C)(O)CNCC(=O)Nc1ccc2c(c1)COC(N[C@@H]1CCCc3ccccc31)=N2 [Example 41, 2-(2-Hydroxy-2-methyl-propylamino)-N-{2-[(R)-(1,2,3,4-tetrahydro-naphthalen-1-yl)amino]-4H-benzo[d][1,3]oxazin-6-yl}-acetamide] | 0.033 |
| FC(F)(F)c1ccnc(Nc2ccc3c(c2)COC(N[C@@H]2CCc4ccccc42)=N3)n1 [Example 46, N^2-(R)-Indan-1-yl-N^6-(4-trifluoromethyl-pyrimidin-2-yl)-4H-benzo[d][1,3]oxazine-2,6-diamine] | 0.0071 |
| Cc1cc(C)nc(Nc2ccc3c(c2)COC(N[C@@H]2CCc4ccccc42)=N3)n1 [Example 47, N^6-(4,6-Dimethyl-pyrimidin-2-yl)-N^2-(R)-indan-1-yl-4H-benzo[d][1,3]oxazine-2,6-diamine] | 0.00356 |
| O=C(CN1CCSCC1)Nc1ccc2c(c1)COC(N[C@@H]1CCc3ccccc31)=N2 [Example 65, N-[2-((R)-Indan-1-ylamino)-4H-benzo[d][1,3]oxazin-6-yl]-2-thiomorpholin-4-yl-acetamide] | 0.00762 |
| O=C(CN1CCS(=O)(=O)CC1)Nc1ccc2c(c1)COC(N[C@@H]1CCc3ccccc31)=N2 [Example 66, 2-(1,1-Dioxo-1λ^6-thiomorpholin-4-yl)-N-[2-((R)-indan-1-ylamino)-4H-benzo[d][1,3]oxazin-6-yl]-acetamide] | 0.016 |
| CN1CCN(S(=O)(=O)Nc2ccc3c(c2)COC(N[C@@H]2CCCc4ccccc42)=N3)CC1 [Example 71, 4-Methyl-piperazine-1-sulfonic acid {2-[(R)-(1,2,3,4-tetrahydro-naphthalen-1-yl)amino]-4H-benzo[d][1,3]oxazin-6-yl}-amide] | 0.138 |
| CN1CCN(S(=O)(=O)Nc2ccc3c(c2)COC(N[C@@H]2CCc4ccccc42)=N3)CC1 [Example 72, 4-Methyl-piperazine-1-sulfonic acid [2-((R)-indan-1-ylamino)-4H-benzo[d][1,3]oxazin-6-yl]-amide] | 0.0286 |
| CC(C)N1C2CCC1CC(NCC(=O)Nc1ccc3c(c1)COC(N[C@@H]1CCCc4ccccc41)=N3)C2 (stereo partly drawn) [Example 73, 2-((exo)-8-Isopropyl-8-aza-bicyclo[3.2.1]oct-3-ylamino)-N-{2-[(R)-(1,2,3,4-tetrahydro-naphthalen-1-yl)amino]-4H-benzo[d][1,3]oxazin-6-yl}-acetamide] | 0.0613 |
| CC(C)N1C2CCC1CC(NCC(=O)Nc1ccc3c(c1)COC(N[C@@H]1CCc4ccccc41)=N3)C2 (stereo partly drawn) [Example 76, N-[2-((R)-Indan-1-ylamino)-4H-benzo[d][1,3]oxazin-6-yl]-2-((exo)-8-isopropyl-8-aza-bicyclo[3.2.1]oct-3-ylamino)-acetamide] | 0.0135 |
| O=S(=O)(Nc1ccc2c(c1)COC(N[C@@H]1CCc3ccccc31)=N2)c1ccccc1 [Example 83, N-[2-((R)-Indan-1-ylamino)-4H-benzo[d][1,3]oxazin-6-yl]-benzenesulfonamide] | 0.00369 |
| c1ccc2c(c1)CC[C@H]2NC1=Nc2ccc(NCc3nccs3)cc2CO1 [Example 89, N^2—(R)-Indan-1-yl-N^6-thiazol-2-ylmethyl-4H-benzo[d][1,3]oxazine-2,6-diamine] | 0.00118 |
| c1ccc(CNc2ccc3c(c2)COC(NC2CCCCCC2)=N3)cc1 [Example 94, N^6-Benzyl-N^2-cycloheptyl-4H-benzo[d][1,3]oxazine-2,6-diamine] | 0.0635 |
| O=C(Nc1ccc2c(c1)COC(NCCOc1ccccc1)=N2)C1CC1 [Example 96, Cyclopropanecarboxylic acid [2-(2-phenoxy-ethylamino)-4H-benzo[d][1,3]oxazin-6-yl]-amide] | 0.0033 |
| c1csc(CNc2ccc3c(c2)COC(NC2CCCCCC2)=N3)n1 [Example 98, N^2-Cycloheptyl-N^6-thiazol-2-ylmethyl-4H-benzo[d][1,3]oxazine-2,6-diamine] | 0.0193 |
| c1c[nH]c(CNc2ccc3c(c2)COC(NC2CCCCCC2)=N3)n1 [Example 105, N^2-Cycloheptyl-N^6-(1H-imidazol-2-ylmethyl)-4H-benzo[d][1,3]oxazine-2,6-diamine] | 0.0316 |
| O=S(=O)(Nc1ccc2c(c1)COC(NCCOc1ccccc1)=N2)c1ccccc1 [Example 109, N-[2-(2-Phenoxy-ethylamino)-4H-benzo[d][1,3]oxazin-6-yl]-benzenesulfonamide] | 0.0323 |
| CN(C)S(=O)(=O)Nc1ccc2c(c1)COC(NCCOc1ccccc1)=N2 [Example 110, N,N-(Dimethyl)-N′-{2-(2-Phenoxy-ethylamino)-4H-benzo[d][1,3]oxazin-6-yl}-sulfamide] | 0.0241 |

More lines, in order of falling Ki, values ahead:

| Ki [µM] | Structure (SMILES) |
| --- | --- |
| 0.251 | Cc1ccc(CNC2=Nc3ccc(NC(=O)CN4CCOCC4)cc3CO2)o1 [Example 85, N-{2-[(5-Methyl-furan-2-ylmethyl)-amino]-4H-benzo[d][1,3]oxazin-6-yl}-2-morpholin-4-yl-acetamide] |
| 0.0747 | O=S(=O)(Nc1ccc2c(c1)COC(NC1CCCCCC1)=N2)c1ccccc1 [Example 100, N-(2-Cycloheptylamino-4H-benzo[d][1,3]oxazin-6-yl)-benzenesulfonamide] |
| 0.0476 | CN(C)S(=O)(=O)Nc1ccc2c(c1)COC(NC1CCCCCC1)=N2 [Example 99, N,N-(Dimethyl)-N′-{2-cycloheptylamino-4H-benzo[d][1,3]oxazin-6-yl-}-sulfamide] |
| 0.0386 | O=S(=O)(Nc1ccc2c(c1)COC(NC1CCCCCC1)=N2)C1CC1 [Example 97, Cyclopropanesulfonic acid (2-cycloheptylamino-4H-benzo[d][1,3]oxazin-6-yl)-amide] |
| 0.033 | O=C(CN1CCN(CC(F)(F)F)CC1)Nc1ccc2c(c1)COC(N[C@@H]1CCc3ccccc31)=N2 [Example 70, N-[2-((R)-Indan-1-ylamino)-4H-benzo[d][1,3]oxazin-6-yl]-2-[4-(2,2,2-trifluoro-ethyl)-piperazin-1-yl]-acetamide] |
| 0.0291 | O=S(=O)(Nc1ccc2c(c1)COC(NCCOc1ccccc1)=N2)C1CC1 [Example 108, Cyclopropanesulfonic acid [2-(2-phenoxy-ethylamino)-4H-benzo[d][1,3]oxazin-6-yl]-amide] |
| 0.0268 | Cc1ccc(CNC2=Nc3ccc(NC(=O)CN4CCN(C)CC4)cc3CO2)o1 [Example 84, N-{2-[(5-Methyl-furan-2-ylmethyl)-amino]-4H-benzo[d][1,3]oxazin-6-yl}-2-(4-methyl-piperazin-1-yl)-acetamide] |
| 0.0167 | Nc1ccc2c(c1)COC(NC1CCCCCC1)=N2 [Example 92, N^2-Cycloheptyl-4H-benzo[d][1,3]oxazine-2,6-diamine] |
| 0.0157 | N#Cc1ccc2c(c1)COC(N[C@@H]1CCc3ccccc31)=N2 [Example 117, 2-((R)-Indan-1-ylamino)-4H-benzo[d][1,3]oxazine-6-carbonitrile] |
| 0.0135 | Cc1ccc(CNC2=Nc3ccc(N)cc3CO2)o1 [Example 77, N^2-(5-Methyl-furan-2-ylmethyl)-4H-benzo[d][1,3]oxazine-2,6-diamine] |
| 0.0117 | Cc1ccc(CNC2=Nc3ccc(NC(=O)C4CC4)cc3CO2)o1 [Example 82, Cyclopropanecarboxylic acid {2-[(5-methyl-furan-2-ylmethyl)-amino]-4H-benzo[d][1,3]oxazin-6-yl}-amide] |
| 0.0108 | CN1CCN(CC(=O)Nc2ccc3c(c2)COC(NC2CCCCCC2)=N3)CC1 [Example 93, N-(2-Cycloheptylamino-4H-benzo[d][1,3]oxazin-6-yl)-2-(4-methyl-piperazin-1-yl)-acetamide] |
| 0.00923 | CC(C)(O)CNCC(=O)Nc1ccc2c(c1)COC(N[C@@H]1CCc3ccccc31)=N2 [Example 68, 2-(2-Hydroxy-2-methyl-propylamino)-N-[2-((R)-indan-1-ylamino)-4H-benzo[d][1,3]oxazin-6-yl]-acetamide] |
| 0.00834 | COCCNCC(=O)Nc1ccc2c(c1)COC(N[C@@H]1CCc3ccccc31)=N2 [Example 69, N-[2-((R)-Indan-1-ylamino)-4H-benzo[d][1,3]oxazin-6-yl]-2-(2-methoxy-ethylamino)-acetamide] |
| 0.00742 | O=C(Cn1ccnc1)Nc1ccc2c(c1)COC(N[C@@H]1CCc3ccccc31)=N2 [Example 67, 2-Imidazol-1-yl-N-[2-((R)-indan-1-ylamino)-4H-benzo[d][1,3]oxazin-6-yl]-acetamide] |
| 0.00553 | O=C(Nc1ccc2c(c1)COC(NC1CCCCCC1)=N2)C1CC1 [Example 95, Cyclopropanecarboxylic acid (2-cycloheptylamino-4H-benzo[d][1,3]oxazin-6-yl)-amide] |
| 0.00444 | CS(=O)(=O)Nc1ccc2c(c1)COC(N[C@@H]1CCc3ccccc31)=N2 [Example 78, N-[2-((R)-Indan-1-ylamino)-4H-benzo[d][1,3]oxazin-6-yl]-methanesulfonamide] |
| 0.00363 | CC(=O)Nc1ccc2c(c1)COC(N[C@@H]1CCc3ccccc31)=N2 [Example 48, N-[2-((R)-Indan-1-ylamino)-4H-benzo[d][1,3]oxazin-6-yl]-acetamide] |
| 0.0036 | Nc1ccc2c(c1)COC(NCCOc1ccccc1)=N2 [Example 87, N^2-(2-Phenoxy-ethyl)-4H-benzo[d][1,3]oxazine-2,6-diamine] |
| 0.00289 | COc1cccc2c1C(NC1=Nc3ccc(NC(=O)CN4CCN(C)C(CO)C4)cc3CO1)CC2 (stereo not drawn) [Example 116, 2-(3-Hydroxymethyl-4-methyl-piperazin-1-yl)-N-[2-(7-methoxy-indan-1-ylamino)-4H-benzo[d][1,3]oxazin-6-yl]-acetamide] |
| 0.00181 | O=S(=O)(Nc1ccc2c(c1)COC(N[C@@H]1CCc3ccccc31)=N2)C1CC1 [Example 79, Cyclopropanesulfonic acid [2-((R)-indan-1-ylamino)-4H-benzo[d][1,3]oxazin-6-yl]-amide] |
| 0.00168 | c1cncc(CNc2ccc3c(c2)COC(N[C@@H]2CCc4ccccc42)=N3)c1 [Example 88, N^2—(R)-Indan-1-yl-N^6-pyridin-3-ylmethyl-4H-benzo[d][1,3]oxazine-2,6-diamine] |
